Reference: patent US11917959B2, “Multi-ear system to enhance monocot plant yield” (Monsanto Technology LLC, priority 2015, dated 2024)

Columns and labels:
[1] = test system: maize inbred lines Germplasm A and LH244; assay: Co-dominant ear induction in diploid maize inbreds (Example 5); assay type: in vivo; conditions: for Ave. Ears Per Plant / Ave. Total Kernels Per Plant: Treated
Protocol: Seeds of maize inbred lines Germplasm A and LH244 were planted in soil, germinated, and then transplanted to 10-inch pots after approximately one week, one seedling per pot. The plants were subjected to a co-dominant ear induction treatment at the V8 stage comprising drenching the soil surrounding the roots of each plant with 50 mL of a 2.5% PBZ solution (v/v; 0.4% of active ingredient). The plants were tended in a greenhouse until sexual maturity, then they were self-pollinated. When seed set had completed, the number of co-dominant ears, and the total number of kernels, produced by each plant were counted. Control plants for each germplasm were processed in the same way as the treated groups, except that the control plants were not subjected to the co-dominant ear induction treatment.

[2] = test system: haploid maize populations; assay: Doubling efficiency of four germplasms after co-dominant ear induction (Example 3); assay type: in vivo; parameters: DE50: unit not given beside the values; conditions: 60 mL 2.5% PBZ at V7 or V8
Protocol: Two F1 hybrid-derived (one male and one female) haploid populations (referred to herein as H1 and H2) and two inbred-derived haploid lines (male Germplasm B and female Germplasm A) were tested in this experiment. Seven days after planting, several dozen seedlings from each group were removed from the soil and subjected to a bulk colchicine-based chromosome doubling treatment as described above. After the chromosome doubling treatment, seedlings were transplanted to soil and tended in a greenhouse at standard maize growing conditions. When the seedlings had reached approximately the V7 or V8 stage (approximately 29 days after doubling under the growing conditions used), the seedlings were subjected to co-dominant ear induction treatment comprising 60 mL of 2.5% PBZ added to the soil surrounding the base of each stem.
The seedlings were then tended in standard greenhouse maize growing conditions until they flowered, at which time each plant that produced pollen was self-pollinated and then left undisturbed to await fertilization and kernel production. After approximately 2-3 weeks, ears were harvested and the kernels that formed on them (DH1) were counted to determine doubling efficiencies.
Doubling efficiencies (DE) were calculated under the different constraints described in the previous example to generate values for DE04, DE20, DE30, and DE50 for each of the four genotypes. Furthermore, the above doubling efficiencies were calculated once by considering only the kernels that formed on the primary ear of each plant (Ear1), once by considering only the kernels that formed on the primary and secondary ear of each plant (Ear2), once by considering only the kernels that formed on the primary, secondary, and tertiary ear of each plant (Ear3), and finally by considering all the kernels that formed on all the ears of each plant (Earall).

[3] = Germplasm A, 50 mL 2.5% PBZ at V8

With `CC(C)(C)[C@@H](O)[C@@H](Cc1ccc(Cl)cc1)n1cncn1` (relative stereo) [PBZ, (±)-(R*, R*)-beta-((4-chlorophenyl)methyl)-alpha-(1,1,-dimethylethyl)-1H-1,2,4,-triazole-1-ethanol] the “Ave. Ears Per Plant” value [1, 3] was 8, the “Ave. Total Kernels Per Plant” value [1, 3] was 1677 and the “Ave. Ears Per Plant” value ([1]; LH244, 50 mL 2.5% PBZ at V8) was 5.1. For the same compound, the “Ave. Total Kernels Per Plant” value ([1]; LH244, 50 mL 2.5% PBZ at V8) was 1126, the “average total kernels per plant and average ears per plant, treated vs control” value ([1]; both germplasms) was “more than doubling” and the DE04 ([2]; Ear1, Control A) was 72.9. It also gave a DE20 ([2]; Ear1, Control A) of 60.7, a DE30 ([2]; Ear1, Control A) of 48.6 and a DE50 ([2]; Ear1, Control A) of 48.6. For the same compound, the DE04 ([2]; Ear1, Control B) was 64.8, the DE20 ([2]; Ear1, Control B) was 44.5 and the DE30 ([2]; Ear1, Control B) was 40.5. For the same compound, the DE50 ([2]; Ear1, Control B) was 32.4, the DE04 ([2]; Ear1, Germplasm A) was 64.6 and the DE20 ([2]; Ear1, Germplasm A) was 37.4. It also gave a DE30 ([2]; Ear1, Germplasm A) of 30.6, a DE50 ([2]; Ear1, Germplasm A) of 23.8 and a DE04 ([2]; Ear1, Germplasm B) of 56.7. It also gave a DE20 ([2]; Ear1, Germplasm B) of 40.5, a DE30 ([2]; Ear1, Germplasm B) of 40.5 and a DE50 ([2]; Ear1, Germplasm B) of 40.5. It also gave a DE04 ([2]; Earall, Control A) of 81, a DE20 ([2]; Earall, Control A) of 76.9 and a DE30 ([2]; Earall, Control A) of 76.9. The DE50 ([2]; Earall, Control A) was 64.8, the DE04 ([2]; Earall, Control B) was 68.8 and the DE20 ([2]; Earall, Control B) was 56.7. It also gave a DE30 ([2]; Earall, Control B) of 56.7, a DE50 ([2]; Earall, Control B) of 44.5 and a DE04 ([2]; Earall, Germplasm A) of 81.6. It also gave a DE20 ([2]; Earall, Germplasm A) of 71.4, a DE30 ([2]; Earall, Germplasm A) of 71.4 and a DE50 ([2]; Earall, Germplasm A) of 64.6. The DE04 ([2]; Earall, Germplasm B) was 68.8, the DE20 ([2]; Earall, Germplasm B) was 48.6 and the DE30 ([2]; Earall, Germplasm B) was 44.5. The DE50 ([2]; Earall, Germplasm B) was 44.5.
